The record followed here is ChEMBL document CHEMBL4364276, “Discovery of 4-phenyl-2H-benzo[b][1,4]oxazin-3(4H)-one derivatives as potent and orally active PI3K/mTOR dual inhibitors” (Eur J Med Chem, 2019).

The structures appear in SMILES notation. Where only a bound is given, the exact number is not on record here.

The first series relates to MCF7. Put plainly: cells. The conditions noted are these: Homo sapiens, MCF7, 72 h.
As usually defined, the IC50 is the concentration needed to halve the response being measured. The compound `Cn1c(=O)n(-c2ccc(C(C)(C)C#N)cc2)c2c3cc(-c4cnc5ccccc5c4)ccc3ncc21` [DACTOLISIB] had an IC50 of 0.45 µM.

As to `O=C1COc2ccc(-c3cnc(Cl)c(NS(=O)(=O)c4ccc(F)cc4)c3)cc2N1c1ccc(F)cc1`, the IC50 stood at 32.6 µM.

`O=C1COc2ccc(-c3cccc(NS(=O)(=O)c4ccc(F)cc4)c3)cc2N1C1CCCCC1` came in with an IC50 of 21.4 µM.

Compound `CC(C)N1C(=O)COc2ccc(-c3cnc(Cl)c(NS(=O)(=O)c4ccc(F)cc4)c3)cc21` showed an IC50 of 26.6 µM.

`COc1cccc(N2C(=O)COc3ccc(-c4cccc(NS(=O)(=O)c5ccc(F)cc5)c4)cc32)c1` came in with an IC50 greater than 40 µM.

For `COc1ccc(N2C(=O)COc3ccc(-c4cnc5ccccc5c4)cc32)cc1`, the concentration for half-maximal inhibition (IC50) is greater than 40 µM.

In a further series the target is PI3-kinase p110-delta/p85-alpha (Homo sapiens, UniProt O00329). Put plainly: Inhibition of recombinant human full length N-terminal GST-tagged PI3Kdelta (1 to 1044 residues)/PIK3R1 (1 to 724 residues) expressed in baculovirus expression system using PIP2 as substrate incubated for 2 hrs by ADP-Glo assay.
Sequence of PI3-kinase p110-delta/p85-alpha (P27986 whole entry, the tested form may be a part): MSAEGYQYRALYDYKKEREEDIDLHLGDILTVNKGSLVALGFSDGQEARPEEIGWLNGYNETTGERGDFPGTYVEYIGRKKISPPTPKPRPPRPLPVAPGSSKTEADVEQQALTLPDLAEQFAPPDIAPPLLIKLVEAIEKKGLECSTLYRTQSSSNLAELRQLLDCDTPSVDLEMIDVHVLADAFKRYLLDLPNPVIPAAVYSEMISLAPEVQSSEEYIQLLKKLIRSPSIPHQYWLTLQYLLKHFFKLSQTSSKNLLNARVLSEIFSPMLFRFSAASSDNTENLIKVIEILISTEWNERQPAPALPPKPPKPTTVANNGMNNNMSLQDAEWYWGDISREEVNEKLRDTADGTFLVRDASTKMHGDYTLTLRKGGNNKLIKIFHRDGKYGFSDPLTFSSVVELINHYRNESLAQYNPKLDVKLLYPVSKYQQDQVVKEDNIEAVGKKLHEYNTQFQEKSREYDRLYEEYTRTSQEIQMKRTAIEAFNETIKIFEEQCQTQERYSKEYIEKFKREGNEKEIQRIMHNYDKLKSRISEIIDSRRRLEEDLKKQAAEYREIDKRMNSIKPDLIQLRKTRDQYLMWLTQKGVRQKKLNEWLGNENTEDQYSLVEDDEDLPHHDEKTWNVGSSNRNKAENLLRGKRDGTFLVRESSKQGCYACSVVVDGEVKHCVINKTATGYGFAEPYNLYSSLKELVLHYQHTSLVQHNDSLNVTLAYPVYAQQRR
Sequence of PI3-kinase p110-delta/p85-alpha (O00329 whole entry, the tested form may be a part): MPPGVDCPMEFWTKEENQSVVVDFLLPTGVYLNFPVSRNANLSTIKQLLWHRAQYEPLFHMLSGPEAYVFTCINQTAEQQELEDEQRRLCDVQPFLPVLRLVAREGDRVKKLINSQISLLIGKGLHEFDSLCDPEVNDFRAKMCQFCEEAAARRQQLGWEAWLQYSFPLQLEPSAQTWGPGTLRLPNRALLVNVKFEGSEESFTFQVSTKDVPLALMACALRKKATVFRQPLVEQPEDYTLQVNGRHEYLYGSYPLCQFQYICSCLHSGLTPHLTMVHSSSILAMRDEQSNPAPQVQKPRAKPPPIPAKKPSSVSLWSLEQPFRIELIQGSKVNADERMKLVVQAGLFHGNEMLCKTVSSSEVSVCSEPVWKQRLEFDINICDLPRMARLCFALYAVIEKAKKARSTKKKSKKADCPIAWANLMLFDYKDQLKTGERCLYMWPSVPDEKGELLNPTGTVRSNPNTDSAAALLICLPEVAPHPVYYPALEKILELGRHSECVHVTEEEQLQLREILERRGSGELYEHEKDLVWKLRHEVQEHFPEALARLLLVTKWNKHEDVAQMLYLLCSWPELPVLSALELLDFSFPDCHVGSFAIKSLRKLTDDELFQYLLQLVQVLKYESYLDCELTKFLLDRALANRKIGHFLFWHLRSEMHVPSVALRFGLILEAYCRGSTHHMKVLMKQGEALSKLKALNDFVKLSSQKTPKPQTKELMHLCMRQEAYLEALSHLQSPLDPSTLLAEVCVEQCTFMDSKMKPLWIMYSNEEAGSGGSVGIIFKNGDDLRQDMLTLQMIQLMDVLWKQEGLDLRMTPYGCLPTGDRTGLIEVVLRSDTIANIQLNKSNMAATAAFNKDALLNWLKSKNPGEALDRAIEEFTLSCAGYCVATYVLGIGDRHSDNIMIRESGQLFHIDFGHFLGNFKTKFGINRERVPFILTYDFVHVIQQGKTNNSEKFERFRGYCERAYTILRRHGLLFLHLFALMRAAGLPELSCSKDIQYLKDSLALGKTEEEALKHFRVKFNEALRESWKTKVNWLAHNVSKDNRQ
Settings: not given
For orientation: ADP-Glo turns the ADP formed in a reaction into a luminescent signal.
As to `O=C1COc2ccc(-c3cnc(Cl)c(NS(=O)(=O)c4ccc(F)cc4)c3)cc2N1c1ccc(F)cc1`, the half-maximal inhibitory concentration (IC50) came to 5 nM.

As to `O=C1COc2ccc(-c3cccc(NS(=O)(=O)c4ccc(F)cc4)c3)cc2N1C1CCCCC1`, the IC50 was greater than 1000 nM.

As for `CC(C)N1C(=O)COc2ccc(-c3cnc(Cl)c(NS(=O)(=O)c4ccc(F)cc4)c3)cc21`, the half-inhibitory concentration (IC50) worked out at 3.8 nM.

On to `COc1cccc(N2C(=O)COc3ccc(-c4cccc(NS(=O)(=O)c5ccc(F)cc5)c4)cc32)c1`, for which the half-inhibitory concentration (IC50) is greater than 1000 nM.

Turning to `COc1ccc(N2C(=O)COc3ccc(-c4cnc5ccccc5c4)cc32)cc1`, the IC50 was greater than 1000 nM.

The target of a further series is Phosphatidylinositol 4,5-bisphosphate 3-kinase catalytic subunit alpha isoform (Homo sapiens, UniProt P42336). Put plainly: Inhibition of recombinant human full length N-terminal GST-tagged PI3Kalpha (1 to 1068 residues)/PIK3R1 (1 to 724 residues) expressed in baculovirus expression system using PIP2 as substrate incubated for 1 hr by ADP-Glo assay.
Sequence of Phosphatidylinositol 4,5-bisphosphate 3-kinase catalytic subunit alpha isoform (P42336 whole entry, looked up, the tested form may be a part, canonical isoform): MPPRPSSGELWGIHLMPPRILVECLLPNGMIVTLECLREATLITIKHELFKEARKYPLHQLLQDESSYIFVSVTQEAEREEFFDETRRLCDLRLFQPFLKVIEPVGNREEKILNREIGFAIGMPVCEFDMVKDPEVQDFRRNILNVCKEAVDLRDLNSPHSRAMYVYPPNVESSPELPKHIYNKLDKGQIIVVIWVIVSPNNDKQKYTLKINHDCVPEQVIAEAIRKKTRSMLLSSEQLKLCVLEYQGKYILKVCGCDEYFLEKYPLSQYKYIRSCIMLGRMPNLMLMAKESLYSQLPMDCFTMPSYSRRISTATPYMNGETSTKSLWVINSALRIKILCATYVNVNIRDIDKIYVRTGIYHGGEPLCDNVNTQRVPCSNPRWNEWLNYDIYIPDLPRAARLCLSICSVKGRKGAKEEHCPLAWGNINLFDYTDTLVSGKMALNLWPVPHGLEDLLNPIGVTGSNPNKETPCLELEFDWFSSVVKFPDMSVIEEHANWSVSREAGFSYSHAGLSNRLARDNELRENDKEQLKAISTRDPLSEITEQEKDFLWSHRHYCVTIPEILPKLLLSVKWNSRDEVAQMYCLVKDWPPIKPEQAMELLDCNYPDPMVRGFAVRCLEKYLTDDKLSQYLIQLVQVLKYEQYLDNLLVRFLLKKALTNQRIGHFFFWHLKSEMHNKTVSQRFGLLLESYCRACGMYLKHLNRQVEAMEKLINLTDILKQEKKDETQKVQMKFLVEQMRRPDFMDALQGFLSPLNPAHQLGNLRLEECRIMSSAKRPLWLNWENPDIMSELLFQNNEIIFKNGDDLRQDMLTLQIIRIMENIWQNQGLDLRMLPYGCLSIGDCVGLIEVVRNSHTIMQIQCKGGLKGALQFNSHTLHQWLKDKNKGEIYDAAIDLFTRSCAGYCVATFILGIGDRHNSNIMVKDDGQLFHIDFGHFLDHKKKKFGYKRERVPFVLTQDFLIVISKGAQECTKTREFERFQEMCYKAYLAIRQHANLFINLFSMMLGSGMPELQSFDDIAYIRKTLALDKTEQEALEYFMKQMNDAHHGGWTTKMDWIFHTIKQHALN
Settings: not given
Turning to `O=C1COc2ccc(-c3cnc(Cl)c(NS(=O)(=O)c4ccc(F)cc4)c3)cc2N1c1ccc(F)cc1`, the half-maximal inhibitory concentration (IC50) came out at 5.1 nM.

For `O=C1COc2ccc(-c3cccc(NS(=O)(=O)c4ccc(F)cc4)c3)cc2N1C1CCCCC1`, the IC50 was greater than 1000 nM.

`CC(C)N1C(=O)COc2ccc(-c3cnc(Cl)c(NS(=O)(=O)c4ccc(F)cc4)c3)cc21`: the IC50 was 15.5 nM.

As to `COc1cccc(N2C(=O)COc3ccc(-c4cccc(NS(=O)(=O)c5ccc(F)cc5)c4)cc32)c1`, the IC50 was greater than 1000 nM.

Regarding `COc1ccc(N2C(=O)COc3ccc(-c4cnc5ccccc5c4)cc32)cc1`, the IC50 was greater than 1000 nM.

A further series concerns HeLa. The series is described as follows: Antiproliferative activity against human HeLa cells assessed as reduction in cell viability incubated for 72 hrs by MTT assay. The format is functional, cell-based.
Settings: not given
(Tetrazolium dyes change colour on reduction, which living cells bring about.)
Regarding `Cn1c(=O)n(-c2ccc(C(C)(C)C#N)cc2)c2c3cc(-c4cnc5ccccc5c4)ccc3ncc21` [DACTOLISIB], the concentration for half-maximal inhibition (IC50) is 1.17 µM.

Take `O=C1COc2ccc(-c3cnc(Cl)c(NS(=O)(=O)c4ccc(F)cc4)c3)cc2N1c1ccc(F)cc1`: the IC50 is greater than 40 µM.

Consider `O=C1COc2ccc(-c3cccc(NS(=O)(=O)c4ccc(F)cc4)c3)cc2N1C1CCCCC1`, for which the IC50 was determined as 10.8 µM.

For `CC(C)N1C(=O)COc2ccc(-c3cnc(Cl)c(NS(=O)(=O)c4ccc(F)cc4)c3)cc21`, the concentration for half-maximal inhibition (IC50) was 5.38 µM.

On to `COc1cccc(N2C(=O)COc3ccc(-c4cccc(NS(=O)(=O)c5ccc(F)cc5)c4)cc32)c1`, for which the IC50 is greater than 40 µM.

For the compound `COc1ccc(N2C(=O)COc3ccc(-c4cnc5ccccc5c4)cc32)cc1`, the IC50 was greater than 40 µM.

A further series has as its target Serine/threonine-protein kinase mTOR (Homo sapiens, UniProt P42345). Put plainly: Inhibition of recombinant human N-terminal FLAG-tagged mTOR (1362 to end residues) using Ulight-4E-BP1 as substrate incubated for 30 mins by fluorescence assay.
Settings: not given
For `O=C1COc2ccc(-c3cnc(Cl)c(NS(=O)(=O)c4ccc(F)cc4)c3)cc2N1c1ccc(F)cc1`, the half-maximal inhibitory concentration (IC50) is 17.9 nM.

Take `O=C1COc2ccc(-c3cccc(NS(=O)(=O)c4ccc(F)cc4)c3)cc2N1C1CCCCC1`: the IC50 is greater than 1000 nM.

For `CC(C)N1C(=O)COc2ccc(-c3cnc(Cl)c(NS(=O)(=O)c4ccc(F)cc4)c3)cc21`, the IC50 came out at 4.3 nM.

Consider `COc1cccc(N2C(=O)COc3ccc(-c4cccc(NS(=O)(=O)c5ccc(F)cc5)c4)cc32)c1`, for which the 50% inhibitory concentration (IC50) was greater than 1000 nM.

Regarding `COc1ccc(N2C(=O)COc3ccc(-c4cnc5ccccc5c4)cc32)cc1`, the concentration for half-maximal inhibition (IC50) is greater than 1000 nM.

The next series relates to HepG2. Put plainly: cells. Conditions: Homo sapiens, HepG2, 72 h.
The compound `Cn1c(=O)n(-c2ccc(C(C)(C)C#N)cc2)c2c3cc(-c4cnc5ccccc5c4)ccc3ncc21` [DACTOLISIB] had an IC50 of 4.04 µM.

For `O=C1COc2ccc(-c3cnc(Cl)c(NS(=O)(=O)c4ccc(F)cc4)c3)cc2N1c1ccc(F)cc1`, the IC50 is greater than 40 µM.

For the compound `O=C1COc2ccc(-c3cccc(NS(=O)(=O)c4ccc(F)cc4)c3)cc2N1C1CCCCC1`, 35.9 µM corresponded to half-maximal inhibition (IC50).

As for `CC(C)N1C(=O)COc2ccc(-c3cnc(Cl)c(NS(=O)(=O)c4ccc(F)cc4)c3)cc21`, the IC50 came to 21.5 µM.

`COc1cccc(N2C(=O)COc3ccc(-c4cccc(NS(=O)(=O)c5ccc(F)cc5)c4)cc32)c1` had an IC50 greater than 40 µM.

With `COc1ccc(N2C(=O)COc3ccc(-c4cnc5ccccc5c4)cc32)cc1`, the IC50 was greater than 40 µM.

A further series deals with HCT-116. Put plainly: Antiproliferative activity against human HCT116 cells assessed as reduction in cell viability incubated for 72 hrs by MTT assay. The conditions noted are these: HCT-116, 72 h. The format is functional, cell-based.
As for `Cn1c(=O)n(-c2ccc(C(C)(C)C#N)cc2)c2c3cc(-c4cnc5ccccc5c4)ccc3ncc21` [DACTOLISIB], the IC50 is 1.7 µM.

With `O=C1COc2ccc(-c3cnc(Cl)c(NS(=O)(=O)c4ccc(F)cc4)c3)cc2N1c1ccc(F)cc1`, the IC50 came to 34.2 µM.

As for `O=C1COc2ccc(-c3cccc(NS(=O)(=O)c4ccc(F)cc4)c3)cc2N1C1CCCCC1`, the IC50 is 18.3 µM.

For the compound `CC(C)N1C(=O)COc2ccc(-c3cnc(Cl)c(NS(=O)(=O)c4ccc(F)cc4)c3)cc21`, the half-maximal inhibitory concentration (IC50) came to 18.9 µM.

Turning to `COc1cccc(N2C(=O)COc3ccc(-c4cccc(NS(=O)(=O)c5ccc(F)cc5)c4)cc32)c1`, the concentration for half-maximal inhibition (IC50) was greater than 40 µM.

As for `COc1ccc(N2C(=O)COc3ccc(-c4cnc5ccccc5c4)cc32)cc1`, the IC50 is greater than 40 µM.

The test system of another series is HeLa. The series is described as follows: Antitumor activity against human HeLa cells xenografted in BALB/c nude mouse assessed as tumor growth inhibition at 20 mg/kg, ig administered for 30 days measured every 3 days during compound dosing relative to control. The format is functional. The conditions noted are these: po, read-out: TGI. For orientation: A xenograft is tissue or cells of one species grown in another, often human tumour cells in immunodeficient mice.
In the case of `Cn1c(=O)n(-c2ccc(C(C)(C)C#N)cc2)c2c3cc(-c4cnc5ccccc5c4)ccc3ncc21` [DACTOLISIB], the inhibition in vivo at 20 mg/kg was 66.5%.

Test system in the next series: not listed separately
The series is described as follows: Toxicity in BALB/c mouse xenografted with human HeLa cells assessed as reduction in body weight at 20 mg/kg, ig administered for 30 days. The format is organism-based. The conditions noted are these: in vivo, po, 720 h.
Consider `Cn1c(=O)n(-c2ccc(C(C)(C)C#N)cc2)c2c3cc(-c4cnc5ccccc5c4)ccc3ncc21` [DACTOLISIB], for which the Activity result is “Toxic”.

The subject of a further series is A-375. The series is described as follows: Antiproliferative activity against human A375 cells assessed as reduction in cell viability incubated for 72 hrs by MTT assay. The conditions noted are these: A-375, 72 h. The format is functional, cell-based.
Turning to `Cn1c(=O)n(-c2ccc(C(C)(C)C#N)cc2)c2c3cc(-c4cnc5ccccc5c4)ccc3ncc21` [DACTOLISIB], the IC50 came out at 0.58 µM.

For the compound `O=C1COc2ccc(-c3cnc(Cl)c(NS(=O)(=O)c4ccc(F)cc4)c3)cc2N1c1ccc(F)cc1`, the IC50 was greater than 40 µM.

In the case of `O=C1COc2ccc(-c3cccc(NS(=O)(=O)c4ccc(F)cc4)c3)cc2N1C1CCCCC1`, the IC50 amounted to 23.8 µM.

For `CC(C)N1C(=O)COc2ccc(-c3cnc(Cl)c(NS(=O)(=O)c4ccc(F)cc4)c3)cc21`, the IC50 worked out at 25.5 µM.

Turning to `COc1cccc(N2C(=O)COc3ccc(-c4cccc(NS(=O)(=O)c5ccc(F)cc5)c4)cc32)c1`, the IC50 was greater than 40 µM.

Take `COc1ccc(N2C(=O)COc3ccc(-c4cnc5ccccc5c4)cc32)cc1`: the 50% inhibitory concentration (IC50) was greater than 40 µM.

The next series concerns A549. Put plainly: Antitumor activity against human A549 cells xenografted in BALB/c nude mouse assessed as tumor growth inhibition at 20 mg/kg, ig administered for 30 days measured every 3 days during compound dosing relative to control. The format is functional. The conditions noted are these: A549, po, read-out: TGI.
`Cn1c(=O)n(-c2ccc(C(C)(C)C#N)cc2)c2c3cc(-c4cnc5ccccc5c4)ccc3ncc21` [DACTOLISIB]: the inhibition in vivo at 20 mg/kg came out at 56.1%.

In another series the test system is A549. Put plainly: cells. Conditions: Homo sapiens, A549, 72 h.
On to `Cn1c(=O)n(-c2ccc(C(C)(C)C#N)cc2)c2c3cc(-c4cnc5ccccc5c4)ccc3ncc21` [DACTOLISIB], for which the IC50 amounted to 1.08 µM.

On to `O=C1COc2ccc(-c3cnc(Cl)c(NS(=O)(=O)c4ccc(F)cc4)c3)cc2N1c1ccc(F)cc1`, for which it took 22.3 µM to reach half-maximal inhibition (IC50).

In turn, `O=C1COc2ccc(-c3cccc(NS(=O)(=O)c4ccc(F)cc4)c3)cc2N1C1CCCCC1` had an IC50 of 14.5 µM.

For the compound `CC(C)N1C(=O)COc2ccc(-c3cnc(Cl)c(NS(=O)(=O)c4ccc(F)cc4)c3)cc21`, the IC50 stood at 5.1 µM.

`COc1cccc(N2C(=O)COc3ccc(-c4cccc(NS(=O)(=O)c5ccc(F)cc5)c4)cc32)c1` displayed an IC50 greater than 40 µM.

For the compound `COc1ccc(N2C(=O)COc3ccc(-c4cnc5ccccc5c4)cc32)cc1`, the IC50 was greater than 40 µM.

Test system in a further series: not listed separately
Put plainly: Toxicity in BALB/c mouse xenografted with human A549 cells assessed as reduction in body weight at 20 mg/kg, ig administered for 30 days. The format is organism-based. Conditions: in vivo, po, 720 h.
Consider `Cn1c(=O)n(-c2ccc(C(C)(C)C#N)cc2)c2c3cc(-c4cnc5ccccc5c4)ccc3ncc21` [DACTOLISIB], for which the Activity entry is “Toxic”.
